According to patent US8802712B2, “Pyrazoloquinolines” (Merck Patent GmbH, priority 2010, dated 2014):
Where two headings read alike, the source gives them in different places.

What was measured:
[1] = target: T1, DNA-PK (Homo sapiens (Human), UniProt P78527); assay: DNA-PK/Biochemical Assay (FlashPlate kinase assay); details: 5 μM ATP, 90 min, room temperature
Procedure: The kinase assay was carried out in streptavidin-coated […] microtitre FlashPlates®. To this end, 1.5 μg of the DNA-PK/protein complex and 100 ng of biotinylated substrate, such as, for example, […] biotin-NH2 (“biotin-DNA-PK peptide”), in a total volume of 36.5 μl (34.25 mM HEPES/KOH, 7.85 mM Tris-HCl, 68.5 mM KCl, 5 μM ATP, 6.85 mM MgCl2, 0.5 mM EDTA, 0.14 mM EGTA, 0.69 mM DTT, pH 7.4), were incubated at room temperature for 90 min with 500 ng of DNA from calf thymus, 0.1 μCi of 33P-ATP and 1.8% of DMSO per well with or without the test compound. The reaction was stopped using 50 μl/well of 200 mM EDTA. After incubation for a further 30 min at room temperature, the liquid was removed. Each well was washed three times with 100 μl of 0.9% sodium chloride solution. A non-specific reaction (blank value) was determined using 10 μM of a proprietary kinase inhibitor. The radioactivity measurement was carried out by means of a TopCount. IC50 values were calculated in RS1. • Literature: Kashishian et al. (2003) Molecular Cancer Therapeutics 1257.

[2] = test system: colorectal carcinoma cell line HCT116; assay: Cellular Colony Growth Test with X-ray irradiation; format: cell-based; details: Homo sapiens, HCT-116, 4.8 Gy X-rays
Procedure: Cellular Colony Growth Test The colorectal carcinoma cell line HCT116 was cultivated in MEM alpha medium with 10% oif foetal calf serum, 1 mM sodium pyruvate and 2 mM glutamine at 37° C. and 10% CO2. The cells were detached from the base of the culture vessels with the aid of trypsine/EDTA, centrifuged off in centrifuge tubes and taken up in fresh medium. The cell density was subsequently determined. 300 cells were sown out in 6-well cell culture plates in 2 ml of culture medium and cultivated overnight. Next day, the cells were treated with test substances for one hour before the cell culture plates were treated with defined doses of X-rays (in general 0, 2.4, 4.8, 12 Gray; irradiation instrument: Faxitron RX-650; Faxitron X-Ray LLC, USA). In order to determine the dose/effect relationships, the cells were treated with various concentrations of a test substance. After irradiation, the cells are cultivated for a further 24 hours in the presence of the test substance, the culture medium was then replaced with culture medium without test substance, and the cells were cultivated for a further 6-8 days. The cell colonies formed were subsequently stained with the aid of Crystal Violet and counted in a colony counter (Gelcount, Oxford Optronics, UK). Dose/effect curves, in particular IC50 values, were determined using a curve adaptation function for nonlinear dose/effect relationships.

[3] = test system: CHK2 phosphorylation at threonine 68 in HCT116 cells; assay: Cellular CHK2 Phosphorylation at Threonine 68; format: cell-based; details: Homo sapiens, HCT-116, 6 h; HCT116, 10 μM bleomycin, six hours, ELISA; read-out: IC50 (CHK2 phospho-threonine 68)
Procedure: Cellular CHK2 Phosphorylation at Threonine 68
HCT116 cells were cultivated in MEM alpha medium with 10% of foetal calf serum, 1 mM sodium pyruvate and 2 mM glutamine at 37° C. and 10% CO2. The cells were detached from the base of the culture vessels with the aid of trypsine/EDTA, centrifuged off in centrifuge tubes and taken up in fresh medium. The cell density was subsequently determined. 50,000 cells were sown per cavity of a 96-well cell culture plate in 0.1 ml of culture medium and cultivated overnight. Next day, 10 μM bleomycin and test substances in fresh culture medium were added to the cells and these were cultivated for a further six hours. After lysis of the cells, phospho-threonine 68 of the CHK2 kinase was detected in the lysates with the aid of a phospho-CHK2 (Thr68)-specific ELISA detection system (Catalogue No. 7037, Cell Signaling Technologies, USA). The ELISA colour reaction was measured spectrophotometrically at 450 nm. The extinction of the unstimulated controls (vehicle control without bleomycin) was subtracted from the extinction values of the treatment groups. The controls which were treated with bleomycin were set equal to 100% and all other extinction values were set in relation thereto. IC50 values were determined with the aid of the GraphPad Prism statistics program (GraphPad Software, USA) or Assay Explorer (Symyx Technologies Inc., USA).

[4] = test system: kinases of the PI3K isoenzyme family; details: cited from earlier work
[5] = target: T1, DNA-PK; details: 5.0 mM ATP; cited from earlier work
[6] = test system: mammal cells; details: in cellular terms; cited from earlier work
[7] = target: T1, DNA-PK; details: ATP-competitive; cited from earlier work

IC50 [1]	SMILES	further results
< 100 nM	COc1cc2c(cc1O)ncc1c2c(-c2ccc(C#N)cc2)nn1C [Compound 4, 4-(7-Hydroxy-8-methoxy-3-methyl-3H-pyrazolo-[3,4-c]quinolin-1-yl)-benzonitrile]	melting point: 288.9 °C
< 100 nM	COc1cc2ncc3c(c(-c4ccc(C#N)cc4)nn3C)c2cc1OC(C(N)=O)c1ccc(F)cc1 (stereo not shown) [Compound 8, 2-[1-(4-Cyanophenyl)-7-methoxy-3-methyl-3H-pyrazolo[3,4-c]quinolin-8-yloxy]-2-(4-fluorophenyl)-acetamide]	melting point: 249.2 °C
> 100 nM	COc1cc2ncc3c(c(-c4ccc(C#N)cc4)nn3C)c2cc1OCCN(C)C [Compound 40, 4-[8-(2-Dimethylamino-ethoxy)-7-methoxy-3-methyl-3H-pyrazolo[3,4-c]quinolin-1-yl]benzonitrile]	melting point: 212.2 °C
100 to 500 nM	CCN1CCN(CCNC(=O)C(Oc2cc3c(cc2OC)ncc2c3c(-c3ccc(C#N)cc3)nn2C)c2ccc(F)cc2)CC1 (stereo not shown) [Compound 48, 2-[1-(4-Cyano-phenyl)-7-methoxy-3-methyl-3H-pyrazolo-[3,4-c]quinolin-8-yloxy]-N-[2-(4-ethyl-piperazin-1-yl)ethyl]-2-(4-fluorophenyl)-acetamide]	melting point: 110 to 112 °C
< 100 nM	CCn1nc(-c2ccc(C#N)cc2)c2c3cc(OC)c(OC)cc3ncc21 [Compound 56, 4-(7,8-Dimethoxy-3-ethyl-3H-pyrazolo[3,4-c]quinolin-1-yl)-benzonitrile]	melting point: 227.4 °C
100 to 500 nM	COc1cc2ncc3c(c(-c4ccc(C#N)cc4)nn3CC(N)=O)c2cc1OC [Compound 68, 2-[1-(4-Cyanophenyl)-7,8-dimethoxypyrazolo[3,4-c]-quinolin-3-yl]acetamide]	–
< 100 nM	COc1cc2ncc3c(c(-c4ccc(C#N)cc4)nn3C(F)F)c2cc1OC [Compound 69, 4-(3-Difluoromethyl-7,8-dimethoxy-3H-pyrazolo[3,4-c]-quinolin-1-yl)benzonitrile]	–
< 100 nM	COc1cc2ncc3[nH]nc(-c4ccc(C#N)c(N5CCCC5)c4)c3c2cc1OC [Compound 70, 4-(7,8-Dimethoxy-3H-pyrazolo[3,4-c]quinolin-1-yl)-2-pyrrolidin-1-yl-benzonitrile]	melting point: 291 °C (dec.)
< 100 nM	COCc1cc(-c2nn(C)c3cnc4cc(OC)c(OC)cc4c23)ccc1C#N [Compound 71, 4-(7,8-Dimethoxy-3-methyl-3H-pyrazolo[3,4-c]quinolin-1-yl)-2-methoxymethyl-benzonitrile]	–
< 100 nM	COC(=O)c1cc(-c2[nH]nc3cnc4cc(OC)c(OC)cc4c23)ccc1C#N [Compound 72, 2-Cyano-5-(7,8-dimethoxy-3H-pyrazolo[3,4-c]quinolin-1-yl)benzoic acid methyl ester]	–
< 100 nM	COc1cc2ncc3n[nH]c(-c4ccc(C#N)c(C(=O)O)c4)c3c2cc1OC [Compound 73, 2-Cyano-5-(7,8-dimethoxy-3H-pyrazolo[3,4-c]quinolin-1-yl)benzoic acid]	–
> 500 nM	COc1cc2ncc3n[nH]c(-c4ccc(C#N)c(-c5ccccc5)c4)c3c2cc1OC [Compound 74, 5-(7,8-Dimethoxy-3H-pyrazolo[3,4-c]quinolin-1-yl)biphenyl-2-carbonitrile]	–
100 to 500 nM	CCN1CCN(c2ccc(-c3nn(C)c4cnc5cc(OC)c(OC)cc5c34)cc2)CC1 [Compound 75, 1-[4-(4-Ethylpiperazin-1-yl)-phenyl]-7,8-dimethoxy-3-methyl-3H-pyrazolo[3,4-c]-quinoline]	–
< 100 nM	COc1cc2ncc3c(c(-c4ccccc4F)nn3C)c2cc1OC [Compound 76, 1-(2-Fluorophenyl)-7,8-dimethoxy-3-methyl-3H-pyrazolo[3,4-c]quinoline]	–
< 100 nM	COc1cc2ncc3c(c(-c4ccc(C#N)cc4F)nn3C)c2cc1-c1cccnc1 [Compound 77, 3-Fluoro-4-(7-methoxy-3-methyl-8-pyridin-3-yl-3H-pyrazolo[3,4-c]-quinolin-1-yl)-benzonitrile]	–
< 100 nM	COc1cc2ncc3c(c(-c4ccc(C#N)cc4F)nn3C)c2cc1-c1cnc2ccccc2c1 [Compound 78, 3-Fluoro-4-(7-methoxy-3-methyl-8-quinolin-3-yl-3H-pyrazolo[3,4-c]-quinolin-1-yl)-benzonitrile]	–
< 100 nM	COc1cc2ncc3c(c(-c4ccc(-c5ccn[nH]5)cc4)nn3C)c2cc1OCc1cncs1 [Compound 79, 7-Methoxy-3-methyl-1-[4-(2H-pyrazol-3-yl)phenyl]-8-(thiazol-5-ylmethoxy)-3H-pyrazolo[3,4-c]quinoline]	–
< 100 nM	COc1cc2ncc3c(c(-c4ccc(-c5ccn[nH]5)cc4)nn3C)c2cc1-c1cn[nH]c1 [Compound 88, 7-Methoxy-3-methyl-8-(1H-pyrazol-4-yl)-1-[4-(2H-pyrazol-3-yl)phenyl]-3H-pyrazolo[3,4-c]quino-line]	–
< 100 nM	COc1cc2ncc3c(c(-c4ccc(C#N)cc4F)nn3C)c2cc1-c1cc[nH]c1 [Compound 89, 3-Fluoro-4-[7-methoxy-3-methyl-8-(1H-pyrrol-3-yl)-3H-pyrazolo[3,4-c]-quinolin-1-yl]-benzonitrile]	–
–	COc1cc2ncc3c(c(-c4ccc(C#N)cc4F)nn3C)c2cc1OC [Compound 90, 4-(7,8-Dimethoxy-3-methyl-3H-pyrazolo-[3,4-c]quinolin-1-yl)-3-fluorobenzonitrile]	IC50 [2]: 100 to 500 nM
–	COc1cc2ncc3c(c(-c4ccc(C#N)cc4F)nn3C)c2cc1OC(C(N)=O)c1ccccc1 (stereo not shown) [Compound 91, 2-[1-(4-Cyano-2-fluoro-phenyl)-7-methoxy-3-methyl-3H-pyrazolo[3,4-c]-quinolin-8-yloxy]-2-phenyl-acetamide]	IC50 [3]: 100 to 500 nM
–	CCN1CCN(CC(=O)Nc2ccc(-c3cccc4c(=O)cc(N5CCOCC5)oc34)c3sc4ccccc4c23)CC1 [KU-0060648]	inhibition of kinases of the PI3K isoenzyme family [4]: potently inhibited
–	O=c1cc(N2CCOCC2)oc2c(-c3ccccc3)cccc12 [LY294002]	IC50 [5]: 1250 nM; increase in sensitivity to ionising irradiation [6]: only a weak increase in sensitivity
–	O=c1cc(N2CCOCC2)oc2c(-c3cccc4c3sc3ccccc34)cccc12 [NU-7441]	IC50 [7]: 20 nM
